Results on 32 compounds are retold here after ChEMBL document CHEMBL5126505, “Adenosine receptor antagonists: Recent advances and therapeutic perspective” (Eur J Med Chem, 2022).

In experiment [1] the target is T1, Adenosine receptor A2a (Homo sapiens, UniProt P29274). In words: Binding affinity to human adenosine A2A receptor measured by radioligand-based affinity assay.
Experiment [2] deals with T2, Adenosine receptor A3 (Homo sapiens, UniProt P0DMS8).
T2 sequence (P0DMS8 whole entry): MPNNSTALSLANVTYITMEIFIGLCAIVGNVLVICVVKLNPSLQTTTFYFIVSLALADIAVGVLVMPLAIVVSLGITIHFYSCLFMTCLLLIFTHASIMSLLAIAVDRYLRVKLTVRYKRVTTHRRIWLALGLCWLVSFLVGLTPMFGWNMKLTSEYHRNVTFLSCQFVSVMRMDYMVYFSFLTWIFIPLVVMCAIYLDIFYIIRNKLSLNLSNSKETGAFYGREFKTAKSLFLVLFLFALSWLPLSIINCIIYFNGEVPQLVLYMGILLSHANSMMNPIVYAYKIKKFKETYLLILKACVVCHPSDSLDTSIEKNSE
In words: biochemical.
Description: Displacement of [3H]HEMADO from human adenosine A3 receptor expressed in CHO cells measured by radioligand competition assay

In experiment [3] the target is T1, Adenosine receptor A2a.
Experiment [4] concerns the target T2, Adenosine receptor A3.
Description: Binding affinity to human adenosine A3A receptor
Experiment [5] has as its target T2, Adenosine receptor A3. This is another data set of the same source.
Description: Binding affinity to human adenosine A3A receptor measured by radioligand-based affinity assay
Experiment [6] concerns the target T1, Adenosine receptor A2a. This is another data set of the same source.
Experiment [7] deals with T3, Adenosine receptor A1 (Homo sapiens, UniProt P30542).
T3 sequence (P30542 whole entry): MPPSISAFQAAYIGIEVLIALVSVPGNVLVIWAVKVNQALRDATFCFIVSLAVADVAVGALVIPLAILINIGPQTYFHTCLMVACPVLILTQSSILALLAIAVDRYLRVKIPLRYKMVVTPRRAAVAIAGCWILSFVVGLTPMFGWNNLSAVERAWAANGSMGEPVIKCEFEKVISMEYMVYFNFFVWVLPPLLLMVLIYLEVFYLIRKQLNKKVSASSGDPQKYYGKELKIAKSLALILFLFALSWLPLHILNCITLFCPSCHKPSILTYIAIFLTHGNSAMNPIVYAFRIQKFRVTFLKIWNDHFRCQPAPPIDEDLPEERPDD
Description: Binding affinity to human adenosine A1 receptor

Experiment [8] deals with T3, Adenosine receptor A1. This is another data set of the same source.
Description: Binding affinity to human adenosine A1A receptor measured by radioligand-based affinity assay
Experiment [9] concerns the target T1, Adenosine receptor A2a. The source holds these as a separate data set.
Description: Antagonist activity at adenosine A2A receptor (unknown origin)
The target of experiment [10] is T1, Adenosine receptor A2a. In words: Antagonist activity at human adenosine A2A receptor expressed in CHO cells assessed as inhibition of NECA-induced cAMP production. The class given is functional, cell-based. (Changes in cAMP serve as a functional read-out for many G protein-coupled receptors.)
Experiment [11] has as its target T3, Adenosine receptor A1. This is another data set of the same source.
Description: Antagonist activity at human adenosine A1A receptor
In another experiment the target is T4, Adenosine receptor A2b (Homo sapiens, UniProt P29275).
T4 sequence (P29275 whole entry): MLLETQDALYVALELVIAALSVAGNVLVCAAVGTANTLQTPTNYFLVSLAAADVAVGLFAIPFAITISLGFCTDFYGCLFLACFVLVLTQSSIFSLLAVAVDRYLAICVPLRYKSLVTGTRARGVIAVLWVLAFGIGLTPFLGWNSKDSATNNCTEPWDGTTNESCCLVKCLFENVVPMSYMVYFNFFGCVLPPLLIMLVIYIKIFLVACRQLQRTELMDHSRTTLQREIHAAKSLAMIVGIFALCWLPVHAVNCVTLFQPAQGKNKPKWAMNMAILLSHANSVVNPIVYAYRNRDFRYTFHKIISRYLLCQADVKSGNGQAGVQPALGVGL

Molecules are shown by their SMILES.

T1 sequence (P29274 whole entry): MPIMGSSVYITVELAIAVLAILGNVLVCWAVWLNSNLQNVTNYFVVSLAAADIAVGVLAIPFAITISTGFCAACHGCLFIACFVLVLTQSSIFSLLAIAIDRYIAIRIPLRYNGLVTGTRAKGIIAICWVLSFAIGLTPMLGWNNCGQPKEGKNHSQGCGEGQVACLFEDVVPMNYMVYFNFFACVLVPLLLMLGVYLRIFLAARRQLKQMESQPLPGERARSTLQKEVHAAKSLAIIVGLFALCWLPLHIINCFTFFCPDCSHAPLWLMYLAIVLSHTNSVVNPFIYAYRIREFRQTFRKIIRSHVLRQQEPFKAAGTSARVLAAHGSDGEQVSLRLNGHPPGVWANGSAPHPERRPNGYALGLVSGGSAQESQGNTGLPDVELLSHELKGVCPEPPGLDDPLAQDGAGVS
Description for Adenosine receptor A2b: Binding affinity to human adenosine A2B receptor

By Ki is commonly meant a measure of affinity in units of concentration, obtained from inhibition or displacement. High values mean lower affinity, low ones higher affinity. For `S=c1sc2c(ncn3nc(-c4ccco4)nc23)n1CCc1ccccc1`, on Adenosine receptor A2a [1], the Ki was determined as 6.3 nM.

In the case of `COc1ccc(-c2cc3cccc(OC)c3oc2=O)cc1`, on Adenosine receptor A3 [2], the affinity, expressed as Ki, was 5320 nM.

As to `CCOc1cccc2cc(-c3ccccc3)c(=O)oc12`, the inhibitory constant (Ki) on Adenosine receptor A3 [2] was 3930 nM.

At Adenosine receptor A3 [2], `CCOc1cccc2cc(-c3ccc(OC)cc3)c(=O)oc12` showed a Ki of 258 nM.

In the case of `Cc1ccc(-c2cc3cc(C)ccc3oc2=O)cc1`, on Adenosine receptor A3 [2], the inhibitory constant (Ki) worked out at 2680 nM.

As a reminder, the IC50 is the concentration that inhibits the measured activity by half. As to `CCN1CCCC(Nc2cc(C)nc(NC(=N)Nc3ccc(Cl)c(Cl)c3)n2)C1` (configuration not stated), 546 nM corresponded to half-maximal inhibition against Adenosine receptor A2a [3] (IC50).

`COc1ccc(OC)c(-c2cc(NC(C)=O)nc(-c3cc(OC)ccc3OC)n2)c1`: at Adenosine receptor A3 [4], the Ki was determined as 7 nM.

For the compound `COc1ccc(-c2cc(NC(C)=O)nc(-c3ccc(OC)c(OC)c3)n2)cc1OC`, the affinity at Adenosine receptor A3 [4], expressed as Ki, was 7 nM.

Regarding `Cc1nc(NC(=O)c2ccccc2)c2nn(-c3ccccc3)cc2n1`, the Ki at Adenosine receptor A3 [5] turned out to be 24 nM. That is a double-digit nanomolar value.

On Adenosine receptor A2a [6], `COc1ccccc1Cc1cc2c(N)nc(-c3ccc(C)o3)nc2s1` registered a Ki of 2.9 nM. In other words, the single-digit nanomolar range.

On Adenosine receptor A2a [6], `Cc1ccc(-c2nc(N)c3cc(Cc4ccccc4Cl)sc3n2)o1` had an inhibition constant Ki of 3.7 nM.

In the case of `CC(C)n1cc2c(Cl)nc(N(C(=O)c3ccccc3)C(=O)c3ccccc3)nc2n1`, on Adenosine receptor A3 [5], the Ki is 900 nM.

With `CCOC(=O)c1c(NC(=O)c2sc(Nc3ccc(C)cc3)nc2-c2ccc(C)cc2)sc2c1CCCC2`, on Adenosine receptor A3 [2], the affinity, expressed as Ki, was 2200 nM.

`CCOC(=O)c1c(NC(=O)c2sc(Nc3ccc(OC)cc3)nc2-c2ccc(C)cc2)sc2c1CCCC2` came in with a Ki at Adenosine receptor A3 [2] of 5200 nM.

At Adenosine receptor A1 [7], `CCn1c(=O)c2c(nc(CCCc3ccccc3)n2CC)n(CC)c1=O` returned a Ki of 164 nM.

Turning to `CCn1c(=O)c2c(nc(COc3ccccc3)n2C)n(CC)c1=O`, the affinity at Adenosine receptor A1 [7], expressed as Ki, was 874 nM.

As to `Cc1ccc(-c2cc(-c3cccc(C(=O)N4CCCCC4)c3)nc(N)n2)o1`, the Ki is 6.34 nM at Adenosine receptor A1 [7] and 9.54 nM at Adenosine receptor A2a [6].

Take `Nc1nc(-c2ccccc2)cc(-c2cccc(OC(=O)N3CCCCC3)c2)n1`: the inhibition constant Ki at Adenosine receptor A1 [8] was 3540 nM; on Adenosine receptor A2a [1], 1950 nM.

`CN1CCN(C(=O)Oc2cccc(-c3cc(-c4ccccc4)nc(N)n3)c2)CC1`: the Ki on Adenosine receptor A1 [8] was determined as 3540 nM; on Adenosine receptor A2a [1] it was 1950 nM.

As for `Nc1nc(-c2ccccc2)cc(-c2cccc(OC(=O)N3CCOCC3)c2)n1`, the Ki amounted to 3540 nM on Adenosine receptor A1 [8] and 1950 nM on Adenosine receptor A2a [1].

Consider `CCn1c(=O)c2c(nc(COc3ccc(Br)cc3)n2C)n(CC)c1=O`, for which the Ki on Adenosine receptor A1 [7] was found to be 264 nM.

In the case of `Oc1ccc(-c2cnc(N[C@H]3CC[C@H](O)CC3)nc2-c2ccccc2)cc1Cl`, the inhibitory constant (Ki) on Adenosine receptor A2a [3] amounted to 7.7 nM.

On Adenosine receptor A2a [6], `CCn1c(=O)c2c(nc(COc3ccc(OC)cc3)n2C)n(CC)c1=O` returned a Ki of 237 nM.

In turn, `CCCn1c(=O)[nH]c2nc(-c3cnn(Cc4cccc(C(F)(F)F)c4)c3)[nH]c2c1=O` showed a Ki at Adenosine receptor A2a [9] of 6 nM. This counts as single-digit nanomolar.

Regarding `CCOc1ccc(-c2cn3c(=O)n(-c4ccccc4)nc3c(N)n2)cc1`, the IC50 at Adenosine receptor A2a [10] was > 30000 nM.

As for `COc1ccc2oc(=O)c(C(=O)Nc3cccc(O)c3)cc2c1`, the Ki on Adenosine receptor A1 [7] amounted to 41000 nM; on Adenosine receptor A3 [4], 22000 nM.

As to `CCCn1c(Oc2cccc(C(F)(F)F)c2)nc2nc(C3CCCC3)[nH]c2c1=O`, the inhibition constant (Ki) on Adenosine receptor A1 [11] is 2 nM. In other words, the single-digit nanomolar range.

On Adenosine receptor A1 [7], `CCCn1c(OC2CCOC2)nc2nc(C3CCCC3)[nH]c2c1=O` (configuration not stated) yielded an inhibition constant Ki of 57 nM.

For `Cc1cccc(NC(=O)c2cc3ccccc3oc2=O)c1`, the Ki at Adenosine receptor A3 [4] is 2400 nM.

On Adenosine receptor A1 [8], `O=c1[nH]c(N2CCCC2)nc2nccc(-c3ccc(Cl)cc3)c12` showed an IC50 of 1480 nM.

The compound `CC1=C(C(=O)OC(C)C(F)(F)F)C(c2ccco2)n2c(nc3ccccc32)N1` (configuration not stated) displayed a Ki at Adenosine receptor A2b of 29.1 nM.

As for `COc1ccc(C(=O)Nc2nc(-c3ccccc3)c(-c3nc4ccccc4c(=O)n3-c3ccccc3)s2)cc1`, the inhibition constant Ki on Adenosine receptor A1 [8] came out at 9.56 nM. This counts as single-digit nanomolar.
